# Source: patent US20250129078A1, “ERBB2 INHIBITORS” (Cogent Biosciences, Inc., priority 2023, published 2025)
# Target: EGFR WT (Homo sapiens (Human), UniProt P00533)
# Test: ErbB enzyme assay (CisBio HTRF-KinEASE-TK), EGFR WT
# Type: biochemical
# Conditions: ATP at Km (25 μM), 1 h incubation
# In short: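 IC50 comes from a 4-parameter fit where the curve crosses 50 percent of control, using the 655/620 nm time-resolved fluorescence ratio with DMSO-only and pre-quenched references. Kinase reactions ran 1 h at ambient temperature before Sa-XL665/cryptate-antibody detection (1 h).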
# Chain of EGFR WT (P00533 25-1210): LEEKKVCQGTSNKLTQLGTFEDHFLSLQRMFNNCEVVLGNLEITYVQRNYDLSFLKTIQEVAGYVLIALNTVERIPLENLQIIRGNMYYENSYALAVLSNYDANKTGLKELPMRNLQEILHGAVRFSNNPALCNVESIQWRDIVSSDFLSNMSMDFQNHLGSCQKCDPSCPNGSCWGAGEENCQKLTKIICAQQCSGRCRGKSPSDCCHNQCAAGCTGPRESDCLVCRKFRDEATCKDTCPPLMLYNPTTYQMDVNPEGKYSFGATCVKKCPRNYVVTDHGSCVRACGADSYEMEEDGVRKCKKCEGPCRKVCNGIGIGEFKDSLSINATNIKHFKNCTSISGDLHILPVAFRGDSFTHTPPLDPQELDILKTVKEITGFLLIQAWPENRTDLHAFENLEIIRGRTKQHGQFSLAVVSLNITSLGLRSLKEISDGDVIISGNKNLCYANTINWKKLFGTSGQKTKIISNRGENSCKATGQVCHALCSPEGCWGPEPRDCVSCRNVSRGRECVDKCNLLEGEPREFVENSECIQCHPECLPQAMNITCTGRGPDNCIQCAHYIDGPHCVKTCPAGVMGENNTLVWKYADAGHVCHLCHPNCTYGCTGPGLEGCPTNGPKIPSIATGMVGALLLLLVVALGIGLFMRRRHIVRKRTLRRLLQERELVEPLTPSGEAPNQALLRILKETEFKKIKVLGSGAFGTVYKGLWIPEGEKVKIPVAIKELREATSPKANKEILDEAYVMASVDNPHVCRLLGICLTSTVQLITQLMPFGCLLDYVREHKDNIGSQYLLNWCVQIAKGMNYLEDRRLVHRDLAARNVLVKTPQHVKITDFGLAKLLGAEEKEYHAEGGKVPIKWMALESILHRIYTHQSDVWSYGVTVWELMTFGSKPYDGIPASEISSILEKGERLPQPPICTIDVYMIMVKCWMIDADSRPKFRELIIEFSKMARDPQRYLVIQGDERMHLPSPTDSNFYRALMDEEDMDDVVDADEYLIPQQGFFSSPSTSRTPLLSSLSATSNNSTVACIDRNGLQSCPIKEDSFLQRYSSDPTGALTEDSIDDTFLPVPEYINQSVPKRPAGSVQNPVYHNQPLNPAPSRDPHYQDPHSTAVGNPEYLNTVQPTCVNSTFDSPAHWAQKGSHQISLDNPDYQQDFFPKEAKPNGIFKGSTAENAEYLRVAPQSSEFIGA
row,SMILES,IC50 [nM]
1,"C=CC(=O)N1CC(N(C)c2ncc3ncnc(Nc4ccc(Oc5ccc6c(c5)nnn6C)c(C)c4F)c3n2)C1 [Compound 69, 1-(3-((8-((2-fluoro-3-methyl-4-((1-methyl-1H-benzo[d][1,2,3]triazol-5-yl)oxy)phenyl)amino)pyrimido[5,4-d]pyrimidin-2-yl)(methyl)amino)azetidin-1-yl)prop-2-en-1-one]",< 50
2,"C=CC(=O)N1CCN(c2ncc3ncnc(Nc4ccc(Oc5cc(F)c6c(c5)ncn6C)c(C)c4F)c3n2)C[C@H]1CC [Compound 160, (R)-1-(2-ethyl-4-(8-((2-fluoro-4-((7-fluoro-1-methyl-1H-benzo[d]imidazol-5-yl)oxy)-3-methylphenyl)amino)pyrimido[5,4-d]pyrimidin-2-yl)piperazin-1-yl)prop-2-en-1-one]",< 50
3,"C=CC(=O)N1CCN(c2ccc3ncnc(Nc4ccc(Oc5cc(F)c6c(c5)nnn6C)c(C)c4)c3n2)C[C@H]1C [Compound 254, (R)-1-(4-(4-((4-((7-fluoro-1-methyl-1H-benzo[d][1,2,3]triazol-5-yl)oxy)-3-methylphenyl)amino)pyrido[3,2-d]pyrimidin-6-yl)-2-methylpiperazin-1-yl)prop-2-en-1-one]",50 to 100
4,"C=CC(=O)N1CCN(c2ccc3ncnc(Nc4ccc(Oc5cc6ncnn6cn5)c(C)c4)c3n2)CC1(C)C [Compound 328, 1-(4-(4-((4-([1,2,4]triazolo[1,5-c]pyrimidin-7-yloxy)-3-methylphenyl)amino)pyrido[3,2-d]pyrimidin-6-yl)-2,2-dimethylpiperazin-1-yl)prop-2-en-1-one]",< 50
5,"C=CC(=O)N[C@H]1C[C@H](C)CN(c2ccc3ncnc(Nc4ccc(Oc5ccc6c(c5)nnn6C)c(C)c4F)c3n2)C1 (single isomer, unassigned) [Compound 339]",100 to 500
6,"C=CC(=O)N[C@@H]1CCN(c2ccc3ncnc(Nc4ccc(Oc5ccc6c(c5)nnn6C)c(C)c4F)c3n2)C[C@@H]1F [Compound 279, N-((3S,4R)-3-fluoro-1-(4-((2-fluoro-3-methyl-4-((1-methyl-1H-benzo[d][1,2,3]triazol-5-yl)oxy)phenyl)amino)pyrido[3,2-d]pyrimidin-6-yl)piperidin-4-yl)acrylamide]",500 to 1000
7,"C=CC(=O)N[C@@H]1CCN(c2ccc3ncnc(Nc4ccc(Oc5ccc6c(c5)nnn6C)c(C)c4F)c3n2)C[C@H]1F [Compound 287, N-((3R,4R)-3-fluoro-1-(4-((2-fluoro-3-methyl-4-((1-methyl-1H-benzo[d][1,2,3]triazol-5-yl)oxy)phenyl)amino)pyrido[3,2-d]pyrimidin-6-yl)piperidin-4-yl)acrylamide]",100 to 500
8,"Cc1cc(Nc2ncnc3ccc(N4CC[C@@H](C)N(C(=O)/C=C/C(F)F)CC4)nc23)ccc1Oc1ccn2ncnc2c1 [Compound 367, (R,E)-1-(4-(4-((4-([1,2,4]triazolo[1,5-a]pyridin-7-yloxy)-3-methylphenyl)amino)pyrido[3,2-d]pyrimidin-6-yl)-7-methyl-1,4-diazepan-1-y1)-4,4-difluorobut-2-en-1-one]",500 to 1000

# Second part, the molecule after the results:
row,IC50 [nM],SMILES
1,< 50,"C=CC(=O)N1CC[C@H](N(C)c2ncc3ncnc(Nc4ccc(Oc5ccc6c(c5)nnn6C)c(C)c4)c3n2)C1 [Compound 131, (S)-1-(3-(methyl(8-((3-methyl-4-((1-methyl-1H-benzo[d][1,2,3]triazol-5-yl)oxy)phenyl)amino)pyrimido[5,4-d]pyrimidin-2-yl)amino)pyrrolidin-1-yl)prop-2-en-1-one]"
2,≥ 1000,"C=CC(=O)N1CCN(c2ncc3ncnc(Nc4ccc(Oc5ccc6c(c5)nnn6C)c(C)c4)c3n2)C[C@H]1C(C)C [Compound 121, (R)-1-(2-isopropyl-4-(8-((3-methyl-4-((1-methyl-1H-benzo[d][1,2,3]triazol-5-yl)oxy)phenyl)amino)pyrimido[5,4-d]pyrimidin-2-yl)piperazin-1-yl)prop-2-en-1-one]"
3,≥ 1000,"C=C(F)C(=O)N1CC2CCC1CN2c1ccc2ncnc(Nc3ccc(Oc4ccc5c(c4)nnn5C)c(C)c3)c2n1 (stereo not shown) [Compound 88, 2-fluoro-1-(5-(4-((3-methyl-4-((1-methyl-1H-benzo[d][1,2,3]triazol-5-yl)oxy)phenyl)amino)pyrido[3,2-d]pyrimidin-6-yl)-2,5-diazabicyclo[2.2.2]octan-2-yl)prop-2-en-1-one]"
4,< 50,"C=CC(=O)N1CCC(Oc2ncc3ncnc(Nc4ccc(Oc5cc(F)c6c(c5)nnn6C)c(C)c4)c3n2)CC1 [Compound 106, 1-(4-((8-((4-((7-fluoro-1-methyl-1H-benzo[d][1,2,3]triazol-5-yl)oxy)-3-methylphenyl)amino)pyrimido[5,4-d]pyrimidin-2-yl)oxy)piperidin-1-yl)prop-2-en-1-one]"
5,100 to 500,"C=CC(=O)N1CCN(c2ncc3ncnc(Nc4ccc(Oc5ccc6c(c5)nnn6C)c(C(F)(F)F)c4)c3n2)CC1 [Compound 43, 1-(4-(8-((4-((1-methyl-1H-benzo[d][1,2,3]triazol-5-yl)oxy)-3-(trifluoromethyl)phenyl)amino)pyrimido[5,4-d]pyrimidin-2-yl)piperazin-1-yl)prop-2-en-1-one]"
6,< 50,"C=CC(=O)N1CCN(c2ccc3ncnc(Nc4ccc(Oc5cnc6ccnn6c5)c(C)c4)c3n2)CC1 [Compound 319, 1-(4-(4-((3-methyl-4-(pyrazolo[1,5-a]pyrimidin-6-yloxy)phenyl)amino)pyrido[3,2-d]pyrimidin-6-yl)piperazin-1-yl)prop-2-en-1-one]"
7,< 50,"C=CC(=O)N1CC2CCC(C1)N2c1ncc2ncnc(Nc3ccc(Oc4ccc5c(c4)nnn5C)c(C)c3)c2n1 [Compound 46, 1-(8-(8-((3-methyl-4-((1-methyl-1H-benzo[d][1,2,3]triazol-5-yl)oxy)phenyl)amino)pyrimido[5,4-d]pyrimidin-2-yl)-3,8-diazabicyclo[3.2.1]octan-3-yl)prop-2-en-1-one]"
8,100 to 500,"C=CC(=O)N1CCN(c2ccc3ncnc(Nc4ccc(Oc5ccc6c(c5)nnn6C)c(C)c4)c3n2)C[C@H]1C [Compound 73, (R)-1-(2-methyl-4-(4-((3-methyl-4-((1-methyl-1H-benzo[d][1,2,3]triazol-5-yl)oxy)phenyl)amino)pyrido[3,2-d]pyrimidin-6-yl)piperazin-1-yl)prop-2-en-1-one]"
9,100 to 500,"C=CC(=O)N1CCN(c2ccc3ncnc(Nc4cc(C)c(Oc5ccc6c(c5)nnn6C)cc4OC)c3n2)CC1 [Compound 79, 1-(4-(4-((2-methoxy-5-methyl-4-((1-methyl-1H-benzo[d][1,2,3]triazol-5-yl)oxy)phenyl)amino)pyrido[3,2-d]pyrimidin-6-yl)piperazin-1-yl)prop-2-en-1-one]"
10,≥ 1000,"Cc1cc(Nc2ncnc3cnc(N4CCN(C(=O)/C=C/Cn5cccn5)CC4)nc23)ccc1Oc1ccc2c(c1)nnn2C [Compound 233, (E)-1-(4-(8-((3-methyl-4-((1-methyl-1H-benzo[d][1,2,3]triazol-5-yl)oxy)phenyl)amino)pyrimido[5,4-d]pyrimidin-2-yl)piperazin-1-yl)-4-(1H-pyrazol-1-yl)but-2-en-1-one]"
11,< 50,"C=CC(=O)N1CCN(c2ncc3ncnc(Nc4ccc(Oc5cnn6ccnc6c5)c(C)c4F)c3n2)CC1 [Compound 237, 1-(4-(8-((2-fluoro-4-(imidazo[1,2-b]pyridazin-7-yloxy)-3-methylphenyl)amino)pyrimido[5,4-d]pyrimidin-2-yl)piperazin-1-yl)prop-2-en-1-one]"
